Positions of bridges follow the written chain, without caps; N, C: chain ends. Non-standard residues stand in square brackets, D forms with d. Residues, ends and D or L forms follow the SMILES beside them.
Assays:
Gαi = Gαi (Homo sapiens, UniProt P63096); assay: Nucleotide exchange step (GDP dissociation / GTPγS binding); assay type: biochemical; conditions: compared with Gαs
Procedure: (§1) Gα proteins were diluted to 400 nM in the EDTA buffer (20 mM HEPES 7.5, 150 mM NaCl, 1 mM EDTA-Na 8.0, 2 mM DTT). [^3H]GDP (1 mCi/mL, 25.2 μM) was added to a final concentration of 1.2 μM, followed by cyclic peptides addition. After incubation at 20° C. for 30 minutes, the same volume of assay buffer ([…] HEPES-Na 7.5, 150 mM NaCl, 2 mM MgCl2, and 1 mM GDP) was added to initiate [^3H]GDP dissociation. At various points, […] was removed and mixed with 390 μL of ice-cold wash buffer (20 mM HEPES 7.5, 150 mM NaCl, 20 mM MgCl2). The mixture was immediately filtered through a mixed cellulose membrane (25 mm, 0.22 μm) held by a microanalysis filter holder (EMD Millipore). The membrane was washed by ice-cold wash buffer (500 μL×3), put in a 6-mL plastic vial and air-dried (room temperature 1.5 h). 5 mL of CytoScint-ES Liquid Scintillation Cocktail was added to each vial. After incubation overnight at room temperature, the vial was used for liquid scintillation counting with a LS 6500 Multi-Purpose Scintillation Counter.
Gα proteins were diluted to 10 μM with dilution buffer (20 mM HEPES 7.5, 150 mM NaCl, 1 mM MgCl2, 2 mM DTT, and 20 μM GDP) and incubated with 5× stocks of cyclic peptides at room temperature for 2 hours. GTPγS binding was initiated by mixing with the reaction buffer at room temperature (50 nM [35S]GTPγS and 100 μM GTPγS in dilution buffer) at room temperature. […]

Gαs = Gαs (Homo sapiens, UniProt P63092); assay: GDP dissociation assay ([3H]GDP); assay type: biochemical; design: made in house; host or cells: Escherichia coli BL21(DE3)
Procedure: as §1
The GDP dissociation curves were fitted by the software GraphPad Prism using the following equation to calculate the dissociation rates (koff): […]
in which “Y” is the radioactivity (Counts per minute) of the sample at time “X” (minutes), and Y0 is the calculated radioactivity of the sample at the time point 0.

Gαs/Gβγ = molecular target: T1, Gαs/Gβγ (Homo sapiens, UniProt P63092); assay: BRET2 based Gα Gβγ interaction assay in HEK293 cells (β2AR, isoproterenol); assay type: cell-based; conditions: pretreated 25 μM, 16 hours, 10 nM isoproterenol
T1 construct: expressed in transfected cells; host or cells: HEK293 cells
Text: We next tested GD20-F10L in HEK 293 cells overexpressing both β2AR and Gαs/Gβγ. Rluc8 was inserted within a flexible loop region between the αB-αC helices of Gαs (FIG. 23J) and GFP2 was inserted at the N-terminus of Gγ2 to capture Gαβγ heterotrimer interaction. A decrease in the bioluminescence resonance energy transfer (BRET2) signal between labeled G protein subunits can detect Gαβγ dissociation (FIG. 21C) in live cells (Olsen et al., 2020). We examined Gαβγ trimer dissociation elicited by the GPCR agonist at various concentrations of cyclic peptides by monitoring the net BRET2 signal. In cells that were transiently transfected with a Gαs-coupled β2-adrenergic receptor (β2AR), GαsShort_Rluc8, […], and Gγ-GFP2, ISO application stimulated a basal net BRET response. […] This effect was GD20-F10L dose dependent (FIGS. 21D-21E). […] To assess the specificity of GD20-F10L at the G protein level, we tested it against the Gαi/Gβγ interaction. […]
8 hours after plating in 96-well assay plates, media was replaced with 100 μL of cyclic peptide dilutions in DMEM with 1% dialyzed FBS. […] Plates were then read in a TECAN Spark 20 M plate reader with 395 nm (RLuc8-coelenterazine 400a) and 510 nm (GFP2) emission filters, at integration times of 1 s per well. Plates were read serially six times, and measurements from the fourth read were used in all analyses. […]

Gαi, sequence (P63096 whole entry): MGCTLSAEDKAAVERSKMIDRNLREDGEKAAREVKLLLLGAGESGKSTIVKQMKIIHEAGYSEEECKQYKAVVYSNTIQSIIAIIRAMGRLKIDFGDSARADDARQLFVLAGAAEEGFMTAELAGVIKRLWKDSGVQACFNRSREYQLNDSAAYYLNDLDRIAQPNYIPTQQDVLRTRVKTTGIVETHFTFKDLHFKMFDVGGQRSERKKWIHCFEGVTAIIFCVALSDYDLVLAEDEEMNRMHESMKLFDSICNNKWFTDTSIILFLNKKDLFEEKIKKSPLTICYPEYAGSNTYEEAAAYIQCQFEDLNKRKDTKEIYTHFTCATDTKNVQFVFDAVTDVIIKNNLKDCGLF
T1 sequence (P63092 1-380 isoform P63092-2): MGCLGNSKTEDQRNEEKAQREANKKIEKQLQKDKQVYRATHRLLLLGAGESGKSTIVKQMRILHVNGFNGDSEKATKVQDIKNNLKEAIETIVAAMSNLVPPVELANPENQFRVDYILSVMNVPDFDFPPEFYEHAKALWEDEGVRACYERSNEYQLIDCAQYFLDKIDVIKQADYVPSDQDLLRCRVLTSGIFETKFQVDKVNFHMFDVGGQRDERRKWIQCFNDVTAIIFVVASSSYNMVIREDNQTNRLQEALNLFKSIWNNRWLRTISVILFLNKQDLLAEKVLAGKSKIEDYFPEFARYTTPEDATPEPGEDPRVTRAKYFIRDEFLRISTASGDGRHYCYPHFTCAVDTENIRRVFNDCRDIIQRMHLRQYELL
Gαs, sequence (P63092 1-380 isoform P63092-2): as above

SMILES | sensitivity of the nucleotide exchange step of Gαi (Gαi) | effect on Gαs GDP dissociation rates (koff) (Gαs) | net BRET2 signal between Gαs and Gγ after isoproterenol (Gαs/Gβγ)
CC[C@H](C)[C@@H]1NC(=O)[C@H](C)NC(=O)[C@H](Cc2ccc(O)cc2)NC(=O)[C@H](C(C)C)NC(=O)[C@H](CO)NC(=O)[C@H](CCC(=O)O)NC(=O)[C@H](Cc2ccccc2)NC(=O)[C@@H](Cc2ccc(O)cc2)NC(=O)CSC[C@@H](C(=O)NCC(N)=O)NC(=O)[C@H](CC(C)C)NC(=O)[C@H]([C@@H](C)O)NC(=O)CNC(=O)[C@H](Cc2c[nH]c3ccccc23)NC1=O [GN13] ({CH2CO}-[dY]FESVYAIWGTLCG-NH2; thioether N-13) | much less sensitive | only slightly influenced | –
CC[C@H](C)[C@@H]1NC(=O)[C@H](CC(C)C)NC(=O)[C@@H](Cc2ccc(O)cc2)NC(=O)CSC[C@@H](C(=O)NCC(N)=O)NC(=O)[C@@H]2CCCN2C(=O)[C@H](CC(C)C)NC(=O)[C@H](CC(N)=O)NC(=O)[C@H](CC(C)C)NC(=O)[C@H](C)NC(=O)[C@H](Cc2c[nH]c3ccccc23)NC(=O)[C@H](CCC(N)=O)NC(=O)[C@H](CCCNC(=N)N)NC(=O)[C@H](Cc2ccccc2)NC(=O)[C@H]([C@@H](C)O)NC1=O [GD20-F10L] ({CH2CO}-[dY]LITFRQWALNLPCG-NH2; thioether N-14) | – | – | induced a greater net BRET2 signal

From patent US20240336657A1, “G-ALPHA-S PEPTIDE INHIBITORS AND USES THEREOF” (The Regents of the University of California, priority 2021, published 2024)
